Reference: patent US20030149021A1, “Piperazine mono(dithio)carbamate ester compounds and analogs thereof: preparation method and uses thereof” (Medinox, Inc., priority 2001, published 2003)

Assays:
[1] = Preliminary acute toxicity in mice; format: in vivo
Mouse sarcoma 180 (S180) = test: Anticancer activity against implanted mouse sarcoma 180 (S180), tumor weight; format: in vivo, mice; conditions: for Inhibition (%) (% reduction in tumor mass): S180 in mice, tumor harvested at day 12
Method: Animals: Kuiming mice 18-22 g were provided by the animal department of Bejing Medical University. ICR mice were provided by Beijing Weitonglihua Experiemental Animal Technology, Inc. Each experiment used the same number of male mice and female mice.
Tumor cell line: Mouse sarcoma 180 (S180) was provided by the pharmaceutical group of National Key Laboratory of Natural and Mimic Medicine.
Compound 42 was prepared by the School of Pharmaceutical Sciences of Peking University. Cyclophosphoramide was purchased from Shanghai Hualian Pharmaceutical, Inc.
Tumor was removed from the mouse abdominal cavity. The tumor was diluted to 5×10^6/ml and implanted to the left axilla subcutaneously (0.2 ml per mouse) under sterile conditions. Twenty four (24) hours after implantation, animals were divided into two groups (10 mice per group), either 42 or cyclophosphoramide was given orally to animals once a day for 10 days.
At day 12, the tumor was harvested and the average tumor weight of each group was calculated.

Row | Compound | toxicity (in words) [1] | No of Death ([1]; mice, dose 10 G/kg, 20 animals at start) | inhibition against S180 (in words) (Mouse sarcoma 180 (S180)) | Inhibition (%) (% reduction in tumor mass) (Mouse sarcoma 180 (S180); 100 mg/kg orally once a day for 10 days) | Inhibition (%) (% reduction in tumor mass) (Mouse sarcoma 180 (S180); 500 mg/kg orally once a day for 10 days) | Inhibition (%) (% reduction in tumor mass) (Mouse sarcoma 180 (S180); 30 mg/kg orally once a day for 10 days)
1 | CN1CCN(C(=S)SCCC(C#N)(c2ccccc2)c2ccccc2)CC1.Cl [Compound 42, 4-Methyl-piperazine-1-carbodithioc acid 3-cyano-3,3-diphenyl-propyl ester hydrochloride] | low toxicity | 0 | significant inhibition | 74% | 80% | –
2 | O=P1(N(CCCl)CCCl)NCCCO1 (stereo not drawn) [Cyclophosphoramide, reference compound] | – | – | – | – | – | 73%
